Measurements taken from patent publication US6054462A, “Intranasal antimigraine compositions” (Janssen Pharmaceutica, N.V., priority 1994, dated 2000).

Experiments:
5-HT1 -like receptors = settings: in vitro and in vivo animal experiments; cited from earlier work
clinical = test: clinical; set-up: species or system healthy volunteers; settings: human, in vivo
Protocol: A double-blind, randomized, cross-over trial in healthy volunteers during four treatment days were set up. All volunteers (n=8) participated in the four sessions of the trial, in which the above formulation was tested. On each treatment day volunteers received a single intranasal administration of 1 mg of a formulation of (-)-(R)-N-[(3,4-dihydro-2H-1-benzopyran-2-yl)methyl]-N'-(1,4,5,6-tetrahydro-2-pyrimidinyl)-1,3-propanediamine dihydrochloride as described in example 1. Unidose nasal sprayers at a concentration of 10 mg/ml, which provided a volume of 100 μl per spray were used. The composition was administered to the volunteers as a single spray in one nostril. Blood was sampled over 24 hours for pharmacokinetic analysis. Venous 10 ml blood samples for drug analysis were taken at 0, 5, 10, 20, 30, 60, 90, 120, 240 and 360 minutes and 24 hours after drug administration. The blood samples were transferred to heparinized tubes and centrifuged within 30 minutes after collection. Separated plasma was transferred to polystyrene tubes adequately labelled with the trial number, subject number and initials, time and date of sampling.
Concentrations of (-)-(R)-N-[(3,4-dihydro-2H-1-benzopyran -2-yl)methyl]-N'-(1,4,5,6-tetrahydro-2-pyrimidinyl)-1,3-propanediamine dihydrochloride were determined by radio immunoassay. […]

bioavailability at 24 h (clinical) [%] | Compound | arterial vasoconstrictor response arises through activation of 5-HT1 -like receptors (5-HT1 -like receptors) | vasoconstrictory properties (5-HT1 -like receptors)
 | c1ccc2c(c1)CCC(CNCCCNC1=NCCCN1)O2 (stereo not drawn) [N-[(3,4-dihydro-2H-1-benzopyran-2-yl)methyl]-N'-(1,4,5,6-tetrahydro-2-pyrimidinyl)-1,3-propanediamine] | agonistic activation of 5-HT1 -like receptors | highly vasoconstrictory properties
~35 | Cl.Cl.c1ccc2c(c1)CC[C@H](CNCCCNC1=NCCCN1)O2 [active ingredient, (-)-(R)-N-[(3,4-dihydro-2H-1-benzopyran-2-yl)methyl]-N'-(1,4,5,6-tetrahydro-2-pyrimidinyl)-1,3-propanediamine dihydrochloride] |  | 
